Measured values reported in PubChem BioAssay AID488786 (NMMLSC, 2010).
The source made the active and inactive calls.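 The calls were made as follows: active = compounds whose fitted off-rate of the fluorescent probe exceeds 0.05 per second; inactive = the rest.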

Target: Integrin alpha-4 (Homo sapiens) (UniProt P13612)
Test: LDV-FITC off-rate from VLA-4, SAR follow-up, mechanism study for VLA-4 allosteric modulator project, U937 cells, flow cytometry (AID 488786)
Details: LDV-FITC dissociation rate

Sequence of Integrin alpha-4 (Homo sapiens) (P13612 whole entry, looked up): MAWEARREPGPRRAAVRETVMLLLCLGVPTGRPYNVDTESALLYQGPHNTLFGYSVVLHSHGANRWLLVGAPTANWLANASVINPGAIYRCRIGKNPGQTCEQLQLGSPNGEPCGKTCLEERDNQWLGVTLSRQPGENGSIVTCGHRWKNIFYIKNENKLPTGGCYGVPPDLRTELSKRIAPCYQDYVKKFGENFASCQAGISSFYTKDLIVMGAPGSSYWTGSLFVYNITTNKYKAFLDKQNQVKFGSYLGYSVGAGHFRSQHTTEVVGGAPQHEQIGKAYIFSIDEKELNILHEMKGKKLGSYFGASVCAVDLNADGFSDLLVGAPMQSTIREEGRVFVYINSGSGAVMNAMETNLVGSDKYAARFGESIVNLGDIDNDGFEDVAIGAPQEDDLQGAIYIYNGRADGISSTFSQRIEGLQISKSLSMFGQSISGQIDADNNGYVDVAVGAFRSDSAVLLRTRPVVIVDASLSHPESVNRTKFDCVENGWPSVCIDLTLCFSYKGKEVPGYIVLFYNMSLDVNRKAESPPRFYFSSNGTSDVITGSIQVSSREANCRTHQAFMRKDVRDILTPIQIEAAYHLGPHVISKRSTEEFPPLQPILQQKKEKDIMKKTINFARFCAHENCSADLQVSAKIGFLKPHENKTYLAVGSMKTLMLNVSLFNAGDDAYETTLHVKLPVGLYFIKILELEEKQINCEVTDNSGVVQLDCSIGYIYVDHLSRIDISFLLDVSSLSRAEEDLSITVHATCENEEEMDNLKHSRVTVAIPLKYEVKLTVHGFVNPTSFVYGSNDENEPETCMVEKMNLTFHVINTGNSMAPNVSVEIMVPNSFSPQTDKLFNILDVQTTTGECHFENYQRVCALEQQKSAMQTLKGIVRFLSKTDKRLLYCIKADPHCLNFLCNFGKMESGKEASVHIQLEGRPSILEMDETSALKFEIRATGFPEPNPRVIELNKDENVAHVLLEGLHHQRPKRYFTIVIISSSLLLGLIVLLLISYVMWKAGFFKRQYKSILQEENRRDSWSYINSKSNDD

Q: For `CCOC(=O)/C(=C\c1ccc(OC(F)F)cc1)C1=Nn2c(nnc2-c2ccc(Cl)cc2)SC1`, which outcome is on record?
A: The outcome was “inactive”.

Q: With `CCOC(=O)COc1ccccc1/C=C\[N+](=O)[O-]` as the compound, how does the outcome read?
A: The outcome was “inactive”.

Q: With `CC(NC(=O)/C(C#N)=C/c1ccc(Cl)c([N+](=O)[O-])c1)c1ccccc1` (centres undefined) as the compound, how does the outcome read?
A: The outcome was “inactive”.

Q: Which outcome does the source give for `O=C1NC(=O)C2(N1)c1ccccc1-c1ccccc12` here?
A: The outcome was “inactive”.

Q: How did the outcome turn out when `Cc1ccc(NC(=O)c2cc(N3C(=O)CCC3=O)ccc2N2CCOCC2)cc1Cl` was run?
A: Its outcome is “inactive”.

Q: `COC(=O)C1CN(C#N)N(c2ccc(Cl)cc2)C12c1ccccc1-c1ccccc12` (centres undefined) was tested. Which outcome did it give?
A: Its outcome is “inactive”.

Q: For `O=C(COc1ccc(/C=N/NC(=O)c2cc3ccccc3o2)cc1Cl)Nc1ccccc1`, which outcome is on record?
A: The outcome was “inactive”.

Q: With `FC(F)Oc1ccc(C2=Nn3c(nnc3-c3ccccc3Cl)SC2)cc1OCC1CC1` as the compound, how does the outcome read?
A: The outcome was “inactive”.

Q: With `Cc1ccc(NC(=O)c2cc(N3C(=O)CCC3=O)ccc2N2CCOCC2)cc1` as the compound, how does the outcome read?
A: The outcome was “inactive”.

Q: `CCOCCCNC(=O)/C(C#N)=C/c1ccc(Cl)c([N+](=O)[O-])c1` was tested. Which outcome did it give?
A: The outcome was “inactive”.

Q: How did the outcome turn out when `COC(=O)[C@@H]1[C@@H](C(=O)OC)C2(c3ccccc3-c3ccccc32)N(c2ccc(Cl)cc2)N1C#N` was run?
A: The outcome was “inactive”.

Q: Which outcome does the source give for `COC(=O)C1OC2(OC1C(=O)OC)c1ccccc1-c1ccccc12` (centres undefined) here?
A: The outcome was “inactive”.

Same assay, conditions: at 100 µM, stronger effect = higher value

Q: How did the dissociation rate turn out when `c1ccc2c(-c3ccc(OCCN4CCCCC4)cc3)c(-c3ccsc3)sc2c1` was run?
A: Its dissociation rate is 0.016 s⁻¹ (inactive).

Q: For `CN(C)CCOc1ccc(-c2c(-c3ccccc3)sc3ccccc23)cc1`, which dissociation rate is on record?
A: Its dissociation rate is 0.06 s⁻¹.

Q: For `c1ccc(-c2sc3ccccc3c2-c2ccc(OCCN3CCCC3)cc2)cc1`, which dissociation rate is on record?
A: Its dissociation rate is 0.055 s⁻¹.

Q: For `COc1cccc(-c2sc3ccccc3c2-c2ccc(OCCN3CCCC3)cc2)c1`, which dissociation rate is on record?
A: The dissociation rate was 0.065 s⁻¹.

Q: `COc1ccc(-c2sc3ccccc3c2-c2ccc(OCCN(C)C)cc2)cc1` was tested. Which dissociation rate did it give?
A: Its dissociation rate is 0.08 s⁻¹.

Q: How did the dissociation rate turn out when `COc1cccc(-c2sc3ccccc3c2-c2ccc(OCCN(C)C)cc2)c1` was run?
A: The dissociation rate was 0.06 s⁻¹.

Q: Which dissociation rate does the source give for `c1ccc2c(-c3ccc(OCCN4CCCC4)cc3)c(-c3ccsc3)sc2c1` here?
A: Its dissociation rate is 0.048 s⁻¹ (inactive).
